Experimental data taken from US6372884B1, “Biologically active compounds and methods of constructing and using the same” (priority 1987, dated 2002).
Ends that are not written are not given here.

How the values were obtained:
monoclonal antibody 9BG5 = test: Inhibition of binding of radioiodinated reovirus type 3 particles to 9BG5 coated wells; set-up: species or system mouse; conditions: for binding to neutralizing monoclonal antibody 9BG5, variant peptide compared with VL peptide: relative to VL peptide
Procedure: The wells of microtiter plates were coated with neutralizing anti-reovirus type 3 monoclonal antibody 9BG5 or irrelevant class matched monoclonal A11 by adsorption to staphylococcal protein A (SPA). SPA (sigma Chemical Co., St. Louis, Mo.) was diluted to 5 μg/ml in 0.1 M NaHCO3 pH 9.6 and 50 μl/well dispensed into 96 well polystyrene plates. Following overnight incubation at 4° C., the. wells were decanted, washed three times in PBS, and blocked with 2% BSA in PBS with 0.1% NaN3 for one hour at 37° C. The wells were decanted, washed three times in PBS and monoclonal antibody 9BG5 diluted to 10 μg/ml in 1% BSA in PBS with 0.1% NaN3 was added (50 μl/well) for 1-3 hours at 37° C. […] The wells were decanted and washed three times in PBS. Competitors were added at the concentrations noted (100 μl/well) diluted in 0.5% BSA in 5 mM phosphate buffer with 0.45% NaCl and preincubated for 45-60 minutes at 23° C. […] Following preincubation with inhibitors, radioiodinated reovirus type 3 particles diluted in 1% BSA in PBS with 0.1% NaN3 were added (5-10×10^5 CPM per well), and the incubation continued for 45 minutes. Wells were decanted, washed 8-10 times with PBS and the CPM bound determined. […] As shown in FIGS. 10A-C, 6,700 CPM were bound to 9BG5 coated wells and 500 CPM were bound to control (A11 ) coated wells in the absence of inhibitors. The mean ± standard deviation of binding inhibition (Determined as noted for FIG. 9) of replicate wells is shown. Control peptide B was used in this study. The competitor peptides in FIGS. 15A and 15B are those described herein. Competitor peptide VLA6 is identical to VL except that alanine is substituted for asparagine at position 6.

[1] = test system: C3H female mouse spleenocytes; test: Lymphocyte proliferation with or without concanavalin A; format: cell-based; conditions: for inhibition of con A induced lymphocyte proliferation: presence of con A, FIGS. 7B, 8A, 8B; for biologic activity compared with VL peptide: summary statement in the discussion; for inhibition of spontaneous lymphocyte proliferation: absence of con A, FIG. 7A
[2] = test system: reovirus type 3 receptor on L cells; test: Inhibition of binding of radioiodinated reovirus particles to L cells; set-up: species or system murine; conditions: for binding to the reovirus type 3 receptor compared with VL peptide: summary statement in the discussion
reovirus type 1 [3] = test: Delayed type hypersensitivity (footpad swelling), reovirus type 1; format: in vivo, mice; conditions: footpad challenge with virus
Procedure: (§1) FIG. 17 illustrates data for mice immunized with the reovirus types noted by injection of 10^7 PFU subcutaneously, or with the peptides noted at a dose of 100 μg split into two injections subcutaneously; one week later, mice were challenged with virus or peptides in the footpads; footpad swelling was determined as indicated in the following description 48 hours after challenge; the mean +SEM for groups of mice is shown.
(§2) For the study of DTH response, groups of mice were inoculated with either synthetic peptide or live reovirus type 3 subcutaneously (s.c.) in two separate sites on the dorsal flanks of the animal (over each hind limb); 50 μg of a synthetic peptide or 10^7 viral particles/0.2 ml were given in separate injections of 0.1 ml vol. Six days later, animals were challenged in the left footpad with 3×10^7 viral particles suspended in saline containing 2% gelatin (30 μl). Footpad swelling was recorded 24 hr later in a blind fashion (Greene, M. I. and Weiner, H. L., J. Immunol. 125:283-287, 1980). Four animals per group were studied, and the magnitude of the response was determined by comparing the challenged left footpad to the untreated right footpad.

L cells = test: Inhibition of L cell DNA synthesis (tritiated thymidine); format: cell-based, murine; conditions: tritiated thymidine incorporation after 24 hours, FIGS. 3 and 4
Procedure: Reovirus type 3 inhibits host cell DNA synthesis upon receptor perturbation. This effect is not due to infection of cells as replication defective reovirus type 3 particles retain this property. L cells were cultured at 5 ×10^4 cells per well of 96 well microtiter plates in 100 μl media for 24 hours. Reovirus type 3 particles (A) were added and incubated for an additional 24 hours prior to the addition of tritiated thymidine. Purified monoclonal antibodies 87.92.6 or HO 22.1 (B) were added for 1 hour at 37° C., then the culture media removed and replaced with 100 μl fresh media for 24 hours, prior to the addition of tritiated thymidine. The cells were incubated for an additional 4-6 hours and counts per minute (CPM) incorporated were determined.
87.92.6 is effective only as a native antibody while monomeric Fab fragments have no effect. VL peptide was synthesized with an additional amino terminal cysteine residue (VLSH) to form a dimeric peptide. VLSH peptide was dimerized by stirring a 5 mg/ml solution in 0.1 M ammonium bicarbonate overnight at 23° C. exposed to air. The peptides were then lyophilized. Dimerization was confirmed by Ellman determination according to the procedure of Ellman, G. L. Arch. […] Tritiated thymidine was added for an additional 4-6 hours, and counts per minute (CPM) incorporated was determined. Per cent inhibition was determined by the formula: [formula]

[4] = test system: reovirus type 3 receptor on R1.1 cells; test: Down-modulation of reovirus type 3 receptor, flow cytometry with 87.92.6; format: cell-based, murine; conditions: for reovirus type 3 receptor expression (decrease in mean channel fluorescence): peptides 100 μg/ml, three experiments, FIG. 6; for level of expression of the reovirus type 3 receptor: 1 hour at 37° C., up to 500 μg/ml peptide, FIGS. 5A-D
[5] = test system: neutralizing monoclonal antibody 9BG5; format: binding, mouse
reovirus type 3 [6] = test: Delayed type hypersensitivity (footpad swelling), reovirus type 3; format: in vivo, mice
Procedure: as §1, §2

[7] = test system: reovirus type 3 receptor (Reo3R); test: Flow cytometry: inhibition of 87.92.6 binding to cells; set-up: species or system murine; conditions: for inhibition of binding of 87.92.6 to murine L cells / inhibition of binding of 87.92.6 to R1.1 thymoma cells: FIG. 29; for inhibition of binding of 87.92.6 to R1.1 thymoma cells: R1.1 cells
Procedure: The ability of peptides to inhibit antibody binding to cells was determined by preincubation of the cells with varying amounts of inhibitor (in 100 μl dH2O) for between 30 minutes and 1 hour at 23° C. Cells (either L cells or R1.1 cells) were washed in 1% BSA/PBS/0.1% NaN3, and resuspended at 10^7/ml. 100 μl of cells were then added in 1% BSA/PBS/0.1% NaN3, and the incubation continued for 20-30 minutes. Antibodies (5 or 10 μl were added for an additional 20 minutes at 23° C. Ice cold 1% BSA/PBS/0.1% NaN3, was added, the cells centrifuged and washed prior to counterstaining with a 1:100 dilution of FITC goat anti-mouse Ig (Fisher Scientific) in 1% BSA/PBS/0.1% NaN3. The cells were washed twice and fluorescence intensity determined. Inhibition of binding was calculated as noted above with mean channel number utilized in place of CPM.
To assess the affinity of the cyclic peptides for the reovirus type 3 receptor (Reo3R), they were utilized in a series of assays to inhibit binding of 87.92.6 or control antibodies to specific receptors. […] The inhibition by VLC9C16 peptide was specific as binding of isotype matched monoclonal H013.4 to Thy2 molecules was not inhibited by VLC9C16 peptide (FIG. 30). Thus, VLC9C16 peptide is a specific Reo3R ligand with enhanced affinity compared with its linear analog.

[8] = Size-exclusion chromatography of oxidized peptides (Sephadex G-10); format: physicochemical; conditions: reduced versus non-reduced peptides
[9] = Rate of loss of sulfhydryls on air oxidation (Ellman determination); format: physicochemical; conditions: 2 mg/ml in 0.1 M NaHCO3, 37° C., exposed to air, FIG. 23
[10] = test system: Thy 1.2 molecules on R1.1 cells; test: Expression of Thy 1.2 molecules, flow cytometry with HO 13.4; format: cell-based, murine; conditions: for expression of Thy 1.2 molecules: 1 hour at 37° C., up to 500 μg/ml peptide, FIGS. 5A-D
9B.G5 = test: Competitive RIA: inhibition of 9B.G5 - 87.92.6 interaction; format: binding; conditions: liquid phase assay, FIGS. 25 and 26
reovirus type 3 [11] = test system: reovirus type 3; set-up: species or system Balb/c mice; conditions: mouse, in vivo
reovirus type 1 [12] = test system: reovirus type 1; set-up: species or system Balb/c mice; conditions: mouse, in vivo
reovirus type 1 [13] = test system: reovirus type 1; set-up: species or system Balb/c mice; conditions: mouse, in vivo; remark: listed apart in the source
reovirus type 3 [14] = test system: reovirus type 3; set-up: species or system Balb/c mice; conditions: mouse, in vivo; remark: listed apart in the source

Substance: KPGKTNKLLIYSGSALQ [VLA15]
- binding to neutralizing monoclonal antibody 9BG5, variant peptide compared with VL peptide (monoclonal antibody 9BG5): increased binding to neutralizing monoclonal antibody
- inhibition of con A induced lymphocyte proliferation [1]: attenuated
- biologic activity compared with VL peptide [1]: decreased biological activity
- binding to the reovirus type 3 receptor compared with VL peptide [2]: decreased binding to the reovirus type 3 receptor

Substance: KPGKTNKLLIYSGSTLQ [VL peptide, amino acids 39-55 of the light chain variable region of 87.92.6]
- inhibition of binding of reovirus type 3 particles to 9BG5 (monoclonal antibody 9BG5; FIGS. 10A-C): inhibits binding
- DTH response to reovirus type 1 after immunization with peptide (reovirus type 1 [3]): did not demonstrate significant DTH responses
- inhibition of DNA synthesis by L cells (L cells): no effect
- inhibition of spontaneous lymphocyte proliferation [1]: no significant effect
- inhibition of binding of variant K to L cells ([2]; FIGS. 11A and 11B): inhibits binding
- inhibition of binding of reovirus type 3 to L cells ([2]; FIGS. 11A-D): inhibits binding
- inhibition of binding of reovirus type 1 to cells ([2]; reovirus type 1 utilizes a distinct receptor): not inhibited
- reovirus type 3 receptor expression (decrease in mean channel fluorescence) [4]: no effect
- specific binding of 9BG5 to peptide coated wells [5]: small amount of binding
- DTH response to reovirus type 3 after immunization with peptide (reovirus type 3 [6]; footpad challenge with virus, FIGS. 15A and 15B): significant DTH responses
- DTH to the peptide in animals primed with type 3 virus (reovirus type 3 [6]; priming with type 3 virus, challenge with peptide): significant DTH
- inhibition of binding of 87.92.6 to murine L cells [7]: less effective competitor
- inhibition of binding of 87.92.6 to R1.1 thymoma cells [7]: ineffectual

Substance: KPGKTNKCLIYSGSTCQ (cysteine pairing not given here) [VLC8C16 peptide]
- molecular form following oxidation by size-exclusion chromatography [8]: remained chiefly as monomers
- rate of loss of sulfhydryls [9]: most rapid loss of sulfhydryls

Substance: QGLEWIGRIDPANG [VH peptide, amino acids 43-56 of the heavy chain variable region of 87.92.6 including CDR II]
- expression of Thy 1.2 molecules [10]: does not effect
- level of expression of the reovirus type 3 receptor [4]: does not effect
- inhibition of 9B.G5 - 87.92.6 interaction (9B.G5): able to inhibit
- specific binding of 9BG5 to peptide coated wells [5]: only achieved background levels
- interaction with the reovirus type 3 receptor (Reo3R) [7]: does not significantly interact
- inhibition of binding of 87.92.6 to murine L cells [7]: no effect
- inhibition of binding of 87.92.6 to R1.1 thymoma cells [7]: no effect

Substance: Cys-Lys-Pro-Gly-Lys-Thr-Asn-Lys-Leu-Leu-Ile-Tyr-Ser-Gly-Ser-Thr-Leu-Gln (CKPGKTNKLLIYSGSTLQ; also: dimeric) [VLSH peptide]
- expression of Thy 1.2 molecules [10]: does not effect
- expression of Thy 1.2 molecules (decrease in mean channel fluorescence) ([10]; peptides 100 μg/ml, FIG. 6): without effecting
- inhibition of DNA synthesis by L cells (L cells): marked inhibition
- inhibition of spontaneous lymphocyte proliferation [1]: markedly inhibited
- level of expression of the reovirus type 3 receptor [4]: specifically down-modulates
- reovirus type 3 receptor expression (decrease in mean channel fluorescence) [4]: specifically down-modulated

Substance: KPGKTNKLLIYAGSTLQ [VLA12]
- binding to neutralizing monoclonal antibody 9BG5, variant peptide compared with VL peptide (monoclonal antibody 9BG5): reduced binding to neutralizing monoclonal antibody
- inhibition of con A induced lymphocyte proliferation [1]: attenuated
- biologic activity compared with VL peptide [1]: reduced biologic activity
- binding to the reovirus type 3 receptor compared with VL peptide [2]: reduced binding to the reovirus type 3 receptor

Substance: KSGNASTPQQLQNLTLDIRQR [control peptide, control peptide, unrelated to this system, reference compound]
- neutralization of L-cell lysis by reovirus type 3 by immune serum (reovirus type 3 [11]): no effect
- neutralization of L-cell lysis by reovirus type 1 by immune serum (reovirus type 1 [12]): no effect
- binding of immune serum to type 1 virus coated plates (reovirus type 1 [13]): bound poorly
- specific binding of 9BG5 to peptide coated wells [5]: No significant binding
- binding of immune serum to type 3 virus coated plates (reovirus type 3 [14]): bound poorly

Substance: KPGKTNKLLIYSASTLQ [VLA13]
- binding to neutralizing monoclonal antibody 9BG5, variant peptide compared with VL peptide (monoclonal antibody 9BG5): increased binding
- inhibition of con A induced lymphocyte proliferation [1]: increased effect

Substance: KPGKTNKLLCYSGSTCQ (cysteine pairing not given here) [VLC10C16 peptide]
- molecular form following oxidation by size-exclusion chromatography [8]: migrated more rapidly
- rate of loss of sulfhydryls [9]: more slowly
